{
  "source": "patent US20150301067A1",
  "about": "“METHODS AND ASSAYS FOR FACIOSCAPULOHUMERAL MUSCULAR DYSTROPHY” (UNIVERSITY OF WASHINGTON THROUGH ITS CENTER FOR …, priority 2012, published 2015)",
  "key": {"DUX4 [1]": {"test_system": "DUX4", "experiment": "Immunofluorescent count of DUX4(+) nuclei in MHC(+) myotubes", "type": "cell-based, human", "details": "for reduction in the number of nuclei expressing DUX4: FSHD1(2349) myotubes, KOSR medium", "procedure": "(§1) Primary human myoblasts were obtained by written informed consent through the Fields Center at the University of Rochester cell bank. Myoblasts were grown in F10 medium (INVITROGEN, Carlsbad, Calif.) supplemented with 20% fetal bovine serum (FBS; THERMO SCIENTIFIC (HYCLONE), and 50 U/50 μg penicillin/streptomycin (Pen-Strep; INVITROGEN), 10 ng bFGF (INVITROGEN), and 1 μM dexamethasone (SIGMA ALDRICH; St. Louis, […].)^9. Differentiation was induced using F10 medium supplemented with 1% equine serum and ITS supplement (insulin 0.1%, 0.000067% sodium selenite, 0.055% transferrin; INVITROGEN), or in DMEM:F12 (1:1) with 3.151 g/L glucose, 10 mM non-essential amino acids (INVITROGEN), […] sodium pyruvate, 20% knockout serum replacer (INVITROGEN, #10828010). Pharmacological inhibitor of glycogen synthase kinase-3-β (GSKi) was used at a final concentration of 3 μM (CHIR99021, STEMGENT; Cambridge. Mass.). Recombinant human Wnt3A was used at a concentration of 250 ng/mL, and confirmed to be bioactive prior to use in the assays described herein.\nImmunofluorescent staining for DUX4 was performed using the E5-5 rabbit monoclonal antibody to the C-terminus of DUX4 ^34. Staining was performed by fixing the cells in 4% paraformaldehyde for 10 mins at room temperature, washing with PBS, permeablizing with 0.5% TritonX-100 in PBS for 10 mins at room temperature. The cells were then washed again in PBS and incubated overnight in a 1:10 dilution of the E5-5 antibody. The following day, the cells were washed 3×5 min in PBS and stained using a fluorescent conjugated secondary goat-anti rabbit secondary antibody for 1-2 hr at room temperature. […]\nTo quantify DUX4 expression, the Nikon Ti Eclipse microscope was programmed using the Nikon Elements software to take 36 pictures at random on a 35 mm culture dish, or to scan an entire well of a 384 well dish. These images were then manually inspected and DUX4 (+) nuclei counted. […] The average sum pixel intensity for single nuclei from each image was determined, and used to calculate the number of nuclei within clusters. […]"}, "FSHD-myotubes": {"test_system": "FSHD-myotubes", "experiment": "DUX4-mediated myotube death / apoptosis in FSHD myotubes differentiated in KOSR medium", "type": "cell-based, human", "details": "for DUX4-mediated myotube death: FSHD-myotubes, KOSR differentiation medium, data not shown", "procedure": "Primary human myoblasts were obtained by written informed consent through the Fields Center at the University of Rochester cell bank. […] Pharmacological inhibitor of glycogen synthase kinase-3-β (GSKi) was used at a final concentration of 3 μM (CHIR99021, STEMGENT; Cambridge. Mass.).\nImmunofluorescent staining for DUX4 was performed using the E5-5 rabbit monoclonal antibody to the C-terminus of DUX4 ^34. Staining was performed by fixing the cells in 4% paraformaldehyde for 10 mins at room temperature, washing with PBS, permeablizing with 0.5% TritonX-100 in PBS for 10 mins at room temperature. The cells were then washed again in PBS and incubated overnight in a 1:10 dilution of the E5-5 antibody. The following day, the cells were washed 3×5 min in PBS and stained using a fluorescent conjugated secondary goat-anti rabbit secondary antibody for 1-2 hr at room temperature. Following a final wash, the cells were counterstained with 4′,6-Diamidino-2-phenylindole dihydrochloride (DAPI, SIGMA ALDRICH), and visualized by microscopy using UV illumination.\nTo quantify DUX4 expression, the Nikon Ti Eclipse microscope was programmed using the Nikon Elements software to take 36 pictures at random on a 35 mm culture dish, or to scan an entire well of a 384 well dish. These images were then manually inspected and DUX4 (+) nuclei counted. To determine the myotube index, the Nikon Elements software was used to create binary masks of the DAPI and MHC channels for each image. This technique created a border around each nucleus or cluster of nuclei which could then be used to measure the sum pixel intensity from the DAPI channel. The average sum pixel intensity for single nuclei from each image was determined, and used to calculate the number of nuclei within clusters. By intersecting the binary images from the DAPI and MHC channels the inventors could exclude the nuclei that were outside of MHC(+) myotubes, and create a myotube fusion index. The myotube fusion index was compared to manual counts to confirm accuracy of the calculations."}, "DUX4 [2]": {"test_system": "DUX4", "experiment": "RT PCR of DUX4 transcripts in primary human cells", "type": "cell-based", "details": "normal(NR201) and FSHD2(2305) primary human cells, 3 μM GSKi", "procedure": "as §1\nRNA was isolated by TRIZOL extraction according to the manufacturers protocol (INVITROGEN), except that the final ethanol precipitate was resuspended 1×DNase I buffer and 5 U DNase I for 15 mins and the RNA was extracted with phenol/chloroform and precipitated with ethanol using RNase-free glycogen (NEW ENGLAND BIOLABS) as a carrier. […]"}, "FSHD myotubes": {"test_system": "FSHD myotubes", "experiment": "Cell viability assay (ATP content normalized to DNA content)", "type": "cell-based, human", "details": "cultured in the absence or presence of GSKi", "procedure": "Hoescht Dye was added to cells in culture for 30 minutes at a final concentration of 5 μM. Following detachment with trypsin a 50 μL aliquot of the cells was assayed for fluorescence at 355 nm to give an absorbance value for DNA content. An equal volume of CELL TITRE GLO (PROMEGA) was then added to the aliquot, and luminescence was measured. The luminescent value was normalized to the absorbance value for DNA content."}, "DUX4 promoter": {"test_system": "DUX4 promoter", "experiment": "D4Z4(FFL) DUX4 promoter luciferase reporter in C2C12 cells", "type": "cell-based", "details": "3 μM GSKi, vs DMSO", "procedure": "The D4Z4 regulatory region controlling the expression of DUX4^31 was subcloned upstream of the open reading from of the pGL3-basic vector (pGL3) to make D4Z4(FFL). The D4Z4(FFL) was excised using XbaI/SpeI restriction enzymes and ligated into the SpeI site of a 3rd generation lentiviral vector multiple cloning site (pRRL-sinc-PPT-MCS; Gift from Dr. Grant Trobridge).\nCells transduced with D4Z4(FFL) lentivirus vector were seeded in a 96 well dish. Thirty minutes prior to the assay, Hoescht Dye was added to the cell culture medium to a final concentration of 5 μm, and 30 min later the plate was analyzed for DNA content by measuring fluorescence at 355 nm using a multiwell plate reader (ENVISION; PERKIN-ELMER). An equal volume of STEADY-GLO (PROMEGA) was added to each well, and transferred to an opaque dish. Luminescence was read using the plate reader, and normalized to DNA content for each well."}},
  "note": "“Also recorded” adds a separate entry of the source.",
  "data": [
    {"compound": "O=C(NCc1ccccc1)c1csc(Nc2ccncn2)n1", "note": "[Thiazovivin]", "values": [
      {"measurement": "reduction in the number of nuclei expressing DUX4", "setting": "DUX4 [1]; 0.5 μM Thiazovivin", "result": 10, "unit": "fold"},
      {"measurement": "DUX4-mediated myotube death", "setting": "FSHD-myotubes", "result": "also prevented DUX4-mediated myotube death"}
    ]},
    {"compound": "OCCS", "note": "[β-mercapto-ethanol]", "values": [
      {"measurement": "DUX4-mediated myotube death", "setting": "FSHD-myotubes", "result": "observed DUX4-dependent myotube apoptosis despite treatments"}
    ]},
    {"compound": "Cc1ccc(C(=O)Cn2c3c(sc2=N)CCCC3)cc1", "note": "[pifithrin-α]", "values": [
      {"measurement": "DUX4-mediated myotube death", "setting": "FSHD-myotubes", "result": "efficiently prevented DUX4-mediated myotube death"}
    ]},
    {"compound": "Arsenic trioxide", "values": [
      {"measurement": "DUX4-mediated myotube death", "setting": "FSHD-myotubes", "result": "efficiently prevented DUX4-mediated myotube death"}
    ]},
    {"compound": "C[C@@H](N)[C@H]1CC[C@H](C(=O)Nc2ccncc2)CC1", "note": "[Y-27632]", "values": [
      {"measurement": "reduction in the number of nuclei expressing DUX4", "setting": "DUX4 [1]; 10 μM Y-27632", "result": 10, "unit": "fold"},
      {"measurement": "DUX4-mediated myotube death", "setting": "FSHD-myotubes", "result": "also prevented DUX4-mediated myotube death"}
    ]},
    {"compound": "Cc1c[nH]c(-c2cnc(NCCNc3ccc(C#N)cn3)nc2-c2ccc(Cl)cc2Cl)n1", "note": "[GSKi]", "values": [
      {"measurement": "upregulation of DUX4 expression during myotube formation (DUX4 transcripts)", "setting": "DUX4 [2]", "result": "reduced the characteristic upregulation of DUX4 expression"},
      {"measurement": "reduction in the number of DUX4(+) nuclei in myotubes", "setting": "DUX4 [1]; FSHD myoblasts differentiated in the presence of 3 μM GSKi, three cell lines", "result": "greater than 50%"},
      {"measurement": "myotube apoptosis", "setting": "FSHD-myotubes; FSHD myotubes, GSKi treatment alone (3 μM)", "result": "did not prevent myotube apoptosis; also recorded: insufficient to prevent apoptosis"},
      {"measurement": "ATP content of myoblasts or myotubes", "setting": "FSHD myotubes", "result": "No difference"},
      {"measurement": "upregulation of DUX4 expression during myotube formation (luciferase activity normalized to DNA content)", "setting": "DUX4 promoter", "result": "reduced the characteristic upregulation of DUX4 expression"}
    ]},
    {"compound": "O=C1O[C@H]([C@@H](O)CO)C(O)=C1O", "note": "[ascorbic acid]", "values": [
      {"measurement": "DUX4-mediated myotube death", "setting": "FSHD-myotubes", "result": "observed DUX4-dependent myotube apoptosis despite treatments"}
    ]}
  ]
}
